Experimental data as given in ChEMBL document CHEMBL3992518, “Peptide Macrocycle Inhibitor of Coagulation Factor XII with Subnanomolar Affinity and High Target Selectivity” (J Med Chem, 2017).
*1 amine or outer side, *2 acyl side, *3 side chain or, on linkers, in order; H or OH if unused. Where a SMILES comes first, the peptide text is derived from it. Bridges are numbered along the chain shown (N, C = ends). [ ]: non-standard residue; d: D form. TATA = O=C(CC[*:1])N1CN(C(=O)CC[*:2])CN(C(=O)CC[*:3])C1; hLeu = CC(C)CC[C@H](N)C(=O)O; Nle = CCCC[C@H](N)C(=O)O

Molecular target: T1, Coagulation factor XII (Homo sapiens, UniProt P00748)
T1 sequence (P00748 whole entry): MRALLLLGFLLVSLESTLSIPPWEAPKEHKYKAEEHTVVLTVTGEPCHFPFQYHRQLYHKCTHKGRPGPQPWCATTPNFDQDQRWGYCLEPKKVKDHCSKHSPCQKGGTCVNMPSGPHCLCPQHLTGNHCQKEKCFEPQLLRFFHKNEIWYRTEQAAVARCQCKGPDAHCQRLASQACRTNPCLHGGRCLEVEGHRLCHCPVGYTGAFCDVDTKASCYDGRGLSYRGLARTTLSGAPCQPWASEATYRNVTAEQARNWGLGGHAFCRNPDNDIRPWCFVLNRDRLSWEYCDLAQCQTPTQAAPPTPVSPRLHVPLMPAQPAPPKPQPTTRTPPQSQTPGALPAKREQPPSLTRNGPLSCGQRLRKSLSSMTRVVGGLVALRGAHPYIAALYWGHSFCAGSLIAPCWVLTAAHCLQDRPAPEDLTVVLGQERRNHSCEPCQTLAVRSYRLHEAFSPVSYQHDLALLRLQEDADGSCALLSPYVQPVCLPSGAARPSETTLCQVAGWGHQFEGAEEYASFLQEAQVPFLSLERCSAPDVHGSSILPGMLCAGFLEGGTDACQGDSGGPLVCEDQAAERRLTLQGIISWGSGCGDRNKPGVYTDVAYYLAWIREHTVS
Experiment: Inhibition of human beta factor 12a using fluorogenic substrate Boc-Gln-Gly-Arg-AMC preincubated for 10 mins followed by addition of substrate measured every min for 30 mins

| SMILES | Ki |
| --- | --- |
| CC(C)C[C@@H]1NC(=O)[C@H](CCC(N)=O)NC(=O)[C@H](CCCNC(=N)N)NC(=O)[C@@H]2CSCCC(=O)N3CN(CN(C3)C(=O)CCSC[C@H](NC(=O)[C@@H](N)CCCNC(=N)N)C(=O)N[C@@H](CCc3ccccc3)C(=O)N[C@@H](CCCNC(=N)N)C(=O)N[C@@H](CC(C)C)C(=O)N3CCC[C@H]3C(=O)N2)C(=O)CCSC[C@@H](C(=O)N[C@@H](CCCNC(=N)N)C(=O)N[C@@H](Cc2c[nH]c3ccccc23)C(=O)O)NC(=O)[C@H](CCCNC(=N)N)NC1=O | 366 nM |
| CSCC[C@@H]1NC(=O)[C@H](CCC(N)=O)NC(=O)[C@H](CCCNC(=N)N)NC(=O)[C@@H]2CSCCC(=O)N3CN(CN(C3)C(=O)CCSC[C@H](NC(=O)[C@@H](N)CCCNC(=N)N)C(=O)N[C@@H](Cc3ccccc3)C(=O)N[C@@H](CCCNC(=N)N)C(=O)N[C@@H](CC(C)C)C(=O)N3CCC[C@H]3C(=O)N2)C(=O)CCSC[C@@H](C(=O)N[C@@H](CCCNC(=N)N)C(=O)N[C@@H](Cc2c[nH]c3ccccc23)C(=O)O)NC(=O)[C@H](CCCNC(=N)N)NC1=O (H-RCFRLPCRQMRCRW-OH; linker 2-7-12 via TATA) | 143 nM |
| CC(C)C[C@@H]1NC(=O)[C@H](CCC(N)=O)NC(=O)[C@H](CCCNC(=N)N)NC(=O)[C@@H]2CSCCC(=O)N3CN(CN(C3)C(=O)CCSC[C@H](NC(=O)[C@@H](N)CCCNC(=N)N)C(=O)N[C@@H](Cc3ccccc3)C(=O)N[C@@H](CCCNC(=N)N)C(=O)N[C@@H](CC(C)C)C(=O)N[C@@H](CO)C(=O)N2)C(=O)CCSC[C@@H](C(=O)N[C@@H](CCCNC(=N)N)C(=O)N[C@@H](Cc2c[nH]c3ccccc23)C(=O)O)NC(=O)[C@H](CCCNC(=N)N)NC1=O (H-RCFRLSCRQLRCRW-OH; linker 2-7-12 via TATA) | 29.4 nM |
| CCC[C@@H]1NC(=O)[C@H](CCC(N)=O)NC(=O)[C@H](CCCNC(=N)N)NC(=O)[C@@H]2CSCCC(=O)N3CN(CN(C3)C(=O)CCSC[C@H](NC(=O)[C@@H](N)CCCNC(=N)N)C(=O)N[C@@H](Cc3ccccc3)C(=O)N[C@@H](CCCNC(=N)N)C(=O)N[C@@H](CC(C)C)C(=O)N3CCC[C@H]3C(=O)N2)C(=O)CCSC[C@@H](C(=O)N[C@@H](CCCNC(=N)N)C(=O)N[C@@H](Cc2c[nH]c3ccccc23)C(=O)O)NC(=O)[C@H](CCCNC(=N)N)NC1=O | 72 nM |
| CC(C)CC[C@@H]1NC(=O)[C@H](CCCNC(=N)N)NC(=O)[C@H](Cc2ccccc2)NC(=O)[C@@H](NC(=O)[C@@H](N)CCCNC(=N)N)CSCCC(=O)N2CN3CN(C2)C(=O)CCSC[C@H](NC(=O)[C@@H]2CCCN2C1=O)C(=O)N[C@@H](CCCNC(=N)N)C(=O)N[C@@H](CCC(N)=O)C(=O)N[C@@H](CC(C)C)C(=O)N[C@@H](CCCNC(=N)N)C(=O)N[C@H](C(=O)N[C@@H](CCCNC(=N)N)C(=O)N[C@@H](Cc1c[nH]c2ccccc12)C(=O)O)CSCCC3=O (H-RCFR[hLeu]PCRQLRCRW-OH; linker 2-7-12 via TATA) | 2700 nM |
| CC(C)C[C@@H]1NC(=O)[C@H](CCC(N)=O)NC(=O)[C@H](CCCNC(=N)N)NC(=O)[C@@H]2CSCCC(=O)N3CN(CN(C3)C(=O)CCSC[C@H](NC(=O)[C@@H](N)CCCNC(=N)N)C(=O)N[C@@H](Cc3cccc(F)c3)C(=O)N[C@@H](CCCNC(=N)N)C(=O)N[C@@H](CC(C)C)C(=O)N3CCC[C@H]3C(=O)N2)C(=O)CCSC[C@@H](C(=O)N[C@@H](CCCNC(=N)N)C(=O)N[C@@H](Cc2c[nH]c3ccccc23)C(=O)O)NC(=O)[C@H](CCCNC(=N)N)NC1=O | 4.5 nM |
| CC(C)C[C@@H]1NC(=O)[C@H](CCC(N)=O)NC(=O)[C@H](CCCNC(=N)N)NC(=O)[C@@H]2CSCCC(=O)N3CN(CN(C3)C(=O)CCSC[C@H](N)C(=O)N[C@@H](Cc3ccccc3)C(=O)N[C@@H](CCCNC(=N)N)C(=O)N[C@@H](CC(C)C)C(=O)N3CCC[C@H]3C(=O)N2)C(=O)CCSC[C@@H](C(=O)N[C@@H](CCCNC(=N)N)C(=O)O)NC(=O)[C@H](CCCNC(=N)N)NC1=O (H-CFRLPCRQLRCR-OH; linker 1-6-11 via TATA) | 330 nM |
| CC(C)C[C@@H]1NC(=O)[C@H](CCC(N)=O)NC(=O)[C@H](CCCNC(=N)N)NC(=O)[C@@H]2CSCCC(=O)N3CN(CN(C3)C(=O)CCSC[C@H](NC(=O)[C@@H](N)CCCNC(=N)N)C(=O)N[C@@H](Cc3ccc(F)cc3)C(=O)N[C@@H](CCCNC(=N)N)C(=O)N[C@@H](CC(C)C)C(=O)N3CCC[C@H]3C(=O)N2)C(=O)CCSC[C@@H](C(=O)N[C@@H](CCCNC(=N)N)C(=O)N[C@@H](Cc2c[nH]c3ccccc23)C(=O)O)NC(=O)[C@H](CCCNC(=N)N)NC1=O | 0.89 nM |

Continued, values first:

| Ki | SMILES |
| --- | --- |
| 160 nM | CC(C)C[C@@H]1NC(=O)[C@H](CCC(N)=O)NC(=O)[C@H](CCCNC(=N)N)NC(=O)[C@@H]2CSCCC(=O)N3CN(CN(C3)C(=O)CCSC[C@H](NC(=O)[C@@H](N)CCCNC(=N)N)C(=O)N[C@@H](C(C)C)C(=O)N[C@@H](CCCNC(=N)N)C(=O)N[C@@H](CC(C)C)C(=O)N3CCC[C@H]3C(=O)N2)C(=O)CCSC[C@@H](C(=O)N[C@@H](CCCNC(=N)N)C(=O)N[C@@H](Cc2c[nH]c3ccccc23)C(=O)O)NC(=O)[C@H](CCCNC(=N)N)NC1=O (H-RCVRLPCRQLRCRW-OH; linker 2-7-12 via TATA) |
| 92 nM | CC(C)C[C@@H]1NC(=O)[C@H](CCC(N)=O)NC(=O)[C@H](CCCNC(=N)N)NC(=O)[C@@H]2CSCCC(=O)N3CN(CN(C3)C(=O)CCSC[C@H](NC(=O)[C@@H](N)CCCNC(=N)N)C(=O)N[C@@H](Cc3ccc(I)cc3)C(=O)N[C@@H](CCCNC(=N)N)C(=O)N[C@@H](CC(C)C)C(=O)N3CCC[C@H]3C(=O)N2)C(=O)CCSC[C@@H](C(=O)N[C@@H](CCCNC(=N)N)C(=O)N[C@@H](Cc2c[nH]c3ccccc23)C(=O)O)NC(=O)[C@H](CCCNC(=N)N)NC1=O |
| 3.7 nM | Cc1cccc(C[C@@H]2NC(=O)[C@@H](NC(=O)[C@@H](N)CCCNC(=N)N)CSCCC(=O)N3CN4CN(C3)C(=O)CCSC[C@H](NC(=O)[C@@H]3CCCN3C(=O)[C@H](CC(C)C)NC(=O)[C@H](CCCNC(=N)N)NC2=O)C(=O)N[C@@H](CCCNC(=N)N)C(=O)N[C@@H](CCC(N)=O)C(=O)N[C@@H](CC(C)C)C(=O)N[C@@H](CCCNC(=N)N)C(=O)N[C@H](C(=O)N[C@@H](CCCNC(=N)N)C(=O)N[C@@H](Cc2c[nH]c3ccccc23)C(=O)O)CSCCC4=O)c1 |
| 26.8 nM | CC(C)C[C@@H]1NC(=O)[C@H](CCC(N)=O)NC(=O)[C@H](CCCNC(=N)N)NC(=O)[C@@H]2CSCCC(=O)N3CN(CN(C3)C(=O)CCSC[C@H](NC(=O)[C@@H](N)CCCNC(=N)N)C(=O)N[C@@H](Cc3ccccc3F)C(=O)N[C@@H](CCCNC(=N)N)C(=O)N[C@@H](CC(C)C)C(=O)N3CCC[C@H]3C(=O)N2)C(=O)CCSC[C@@H](C(=O)N[C@@H](CCCNC(=N)N)C(=O)N[C@@H](Cc2c[nH]c3ccccc23)C(=O)O)NC(=O)[C@H](CCCNC(=N)N)NC1=O |
| > 3000 nM | CCCC[C@@H]1NC(=O)[C@H](CCCNC(=N)N)NC(=O)[C@H](Cc2ccccc2)NC(=O)[C@@H](NC(=O)[C@@H](N)CCCNC(=N)N)CSCCC(=O)N2CN3CN(C2)C(=O)CCSC[C@H](NC(=O)[C@@H]2CCCN2C1=O)C(=O)N[C@@H](CCCNC(=N)N)C(=O)N[C@@H](CCC(N)=O)C(=O)N[C@@H](CC(C)C)C(=O)N[C@@H](CCCNC(=N)N)C(=O)N[C@H](C(=O)N[C@@H](CCCNC(=N)N)C(=O)N[C@@H](Cc1c[nH]c2ccccc12)C(=O)O)CSCCC3=O (H-RCFR[Nle]PCRQLRCRW-OH; linker 2-7-12 via TATA) |
| 10.2 nM | CC(C)C[C@@H]1NC(=O)[C@H](CCC(N)=O)NC(=O)[C@H](CCCNC(=N)N)NC(=O)[C@@H]2CSCCC(=O)N3CN(CN(C3)C(=O)CCSC[C@H](NC(=O)[C@@H](N)CCCNC(=N)N)C(=O)N[C@@H](Cc3ccccc3)C(=O)N[C@@H](CCCNC(=N)N)C(=O)N[C@@H](CC(C)C)C(=O)N3CCC[C@H]3C(=O)N2)C(=O)CCSC[C@@H](C(=O)N[C@@H](CCCNC(=N)N)C(=O)N[C@@H](Cc2c[nH]c3ccccc23)C(=O)O)NC(=O)[C@H](CCCNC(=N)N)NC1=O (H-RCFRLPCRQLRCRW-OH; linker 2-7-12 via TATA) |
| > 1000 nM | CC(C)C[C@@H]1NC(=O)[C@H](CCC(N)=O)NC(=O)[C@H](CCCNC(=N)N)NC(=O)[C@@H]2CSCCC(=O)N3CN(CN(C3)C(=O)CCSC[C@H](NC(=O)[C@@H](N)CCCNC(=N)N)C(=O)N[C@@H](Cc3ccc(C(C)(C)C)cc3)C(=O)N[C@@H](CCCNC(=N)N)C(=O)N[C@@H](CC(C)C)C(=O)N3CCC[C@H]3C(=O)N2)C(=O)CCSC[C@@H](C(=O)N[C@@H](CCCNC(=N)N)C(=O)N[C@@H](Cc2c[nH]c3ccccc23)C(=O)O)NC(=O)[C@H](CCCNC(=N)N)NC1=O |
| 1040 nM | CC(C)C[C@@H]1NC(=O)[C@H](CCCNC(=N)N)NC(=O)[C@H](Cc2ccccc2)NC(=O)[C@@H](NC(=O)[C@@H](N)CCCNC(=N)N)CSCCC(=O)N2CN3CN(C2)C(=O)CCSC[C@H](NC(=O)[C@@H]2CCCN2C1=O)C(=O)N[C@@H](CCCNC(=N)N)C(=O)N[C@@H](CCC(N)=O)C(=O)N[C@@H](C)C(=O)N[C@@H](CCCNC(=N)N)C(=O)N[C@H](C(=O)N[C@@H](CCCNC(=N)N)C(=O)N[C@@H](Cc1c[nH]c2ccccc12)C(=O)O)CSCCC3=O (H-RCFRLPCRQARCRW-OH; linker 2-7-12 via TATA) |
